The values that follow come from patent US20140051679A1, “KINASE INHIBITORS AND METHOD OF TREATING CANCER WITH SAME” (UNIVERISTY HEALTH NETWORKS, priority 2011, published 2014).

In general, IC50 refers to the concentration at which inhibition is half-maximal. In general, GI50 refers to the concentration at which growth is held to half of that of the control.

The target of one assay is T1, human PLK4 (Homo sapiens, UniProt O00444).
T1 construct: amino terminal GST fusion of residues 1-391 of human PLK4; made in house; host or cells: E. coli
T1 sequence (O00444 1-391): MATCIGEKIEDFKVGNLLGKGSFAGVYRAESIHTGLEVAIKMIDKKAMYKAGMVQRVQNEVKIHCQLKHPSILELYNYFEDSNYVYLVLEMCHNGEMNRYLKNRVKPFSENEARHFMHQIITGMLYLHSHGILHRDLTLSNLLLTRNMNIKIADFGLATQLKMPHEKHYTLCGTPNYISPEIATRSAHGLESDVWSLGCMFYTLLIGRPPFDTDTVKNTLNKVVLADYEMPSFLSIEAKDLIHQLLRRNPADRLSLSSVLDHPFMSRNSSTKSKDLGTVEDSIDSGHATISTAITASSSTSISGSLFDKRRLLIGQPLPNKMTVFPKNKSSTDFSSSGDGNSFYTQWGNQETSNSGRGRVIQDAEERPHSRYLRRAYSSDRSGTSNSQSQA
The experiment in a line: PLK4 inhibition assay (indirect ELISA). The class given is biochemical. To be noted: GST-PLK4 4 nM, 15 μM ATP; read-out: IC50 Ranges PLK4. In short, it runs like this:
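Dephosphorylated GST-tagged human PLK4 (residues 1-391, E. coli), 4 nM, preincubated 15 min with compound, then reacted 30 min with 15 μM ATP on MBP-coated plates (50 mM HEPES pH 7.5, 10 mM MgCl2, 0.01% Brij 35). Phospho-MBP detected by antibody ELISA at 450 nm. Tested at 10 μM or 10-point titrations; IC50 from 4-parameter logistic fit.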
(In general: An ELISA detects its analyte on a solid surface through an enzyme-linked reagent.)

A further assay deals with T2, human TTK (Homo sapiens, UniProt P33981).
T2 construct: amino terminal GST fusion of full length human TTK; purchased Invitrogen
T2 sequence (P33981 1-857): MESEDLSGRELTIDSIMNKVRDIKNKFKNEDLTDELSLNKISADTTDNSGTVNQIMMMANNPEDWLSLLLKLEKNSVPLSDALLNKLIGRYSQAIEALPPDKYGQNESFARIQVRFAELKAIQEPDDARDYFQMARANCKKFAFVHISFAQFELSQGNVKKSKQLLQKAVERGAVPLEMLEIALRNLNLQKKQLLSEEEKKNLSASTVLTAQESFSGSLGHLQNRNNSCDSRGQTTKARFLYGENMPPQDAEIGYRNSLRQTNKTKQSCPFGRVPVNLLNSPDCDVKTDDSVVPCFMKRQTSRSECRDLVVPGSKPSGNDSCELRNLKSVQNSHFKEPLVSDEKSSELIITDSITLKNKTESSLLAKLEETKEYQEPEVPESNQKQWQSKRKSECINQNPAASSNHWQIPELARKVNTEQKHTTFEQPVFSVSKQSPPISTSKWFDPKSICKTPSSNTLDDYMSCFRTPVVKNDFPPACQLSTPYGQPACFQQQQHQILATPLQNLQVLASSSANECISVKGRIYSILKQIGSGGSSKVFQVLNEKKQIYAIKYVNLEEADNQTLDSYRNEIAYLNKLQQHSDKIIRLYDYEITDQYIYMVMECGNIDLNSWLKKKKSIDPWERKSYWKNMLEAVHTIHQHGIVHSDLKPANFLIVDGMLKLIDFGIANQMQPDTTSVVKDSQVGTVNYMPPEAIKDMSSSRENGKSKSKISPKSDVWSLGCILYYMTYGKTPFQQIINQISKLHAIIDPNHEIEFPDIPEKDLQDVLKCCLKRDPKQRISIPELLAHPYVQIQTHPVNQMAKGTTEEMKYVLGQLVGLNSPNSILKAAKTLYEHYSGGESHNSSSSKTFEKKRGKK
The experiment in a line: TTK inhibition assay (indirect ELISA). The format is biochemical. To be noted: GST-TTK 0.68 nM, 16 μM ATP; read-out: IC50 Ranges TTK.

Assay [1] has as its system HCT116 colon cancer cells. The experiment in a line: Cell growth inhibition, Sulforhodamine B assay, HCT116. The class given is cell-based. To be noted: Homo sapiens, HCT-116, 120 h, 5 days culture, SRB assay, read-out: Cell Line GI50 Range HCT116.
The test system of another assay is HT29 colon cancer cells. Description: Cell growth inhibition, Sulforhodamine B assay, HT29. The class given is cell-based. To be noted: Homo sapiens, HT-29, 120 h, 5 days culture, SRB assay, read-out: Cell Line GI50 Range HT29. On the technique in general: Sulforhodamine B stains cellular protein and so reports cell mass.
Another assay deals with T3, Aurora B (Homo sapiens, UniProt Q96GD4).
T3 construct: purchased Invitrogen PV3970
T3 sequence (Q96GD4 whole entry): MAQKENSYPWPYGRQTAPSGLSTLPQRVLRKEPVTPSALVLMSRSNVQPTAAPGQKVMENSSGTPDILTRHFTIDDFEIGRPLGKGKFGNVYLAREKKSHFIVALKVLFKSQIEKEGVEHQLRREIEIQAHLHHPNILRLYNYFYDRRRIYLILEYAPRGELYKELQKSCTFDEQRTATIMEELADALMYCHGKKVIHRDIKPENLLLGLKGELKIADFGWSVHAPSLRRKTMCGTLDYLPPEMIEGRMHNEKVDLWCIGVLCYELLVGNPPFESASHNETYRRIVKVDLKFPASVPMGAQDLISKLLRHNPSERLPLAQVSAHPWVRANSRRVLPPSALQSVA
The experiment in a line: Aurora B inhibition assay (Z-Lyte). The format is biochemical. The settings on record: 28 nM Aurora B, 128 μM ATP; read-out: IC50 Ranges Aurora B. The method, then: Aurora B inhibition was determined using the Z-Lyte assay kit from Invitrogen. The assay was performed using the recommended manufacturer's instructions with 128 μM ATP and 28 nM Aurora B (Invitrogen cat #PV3970). The % inhibition values were determined according to the manufacturer's directions and IC50 values were obtained using a non-linear 4 point logistic curve fit (XLfit4, IDBS)

Assay [2] has as its system MDA-MB-231 breast cancer cells. The experiment in a line: Cell growth inhibition, Sulforhodamine B assay, MDA-MB-231. The class given is cell-based. The settings on record: Homo sapiens, 120 h, 5 days culture, SRB assay, read-out: Cell Line GI50 Range MDA-MB-231.
The test system of assay [3] is MDA-MB-468 breast cancer cells. The experiment in a line: Cell growth inhibition, Sulforhodamine B assay, MDA-MB-468. The format is cell-based. The settings on record: Homo sapiens, 120 h, 5 days culture, SRB assay, read-out: Cell Line GI50 Range MDA-MB-468.
Description: Breast cancer cells (MDA-MB-231, MDA-MB-468), colon cancer cells (HCT116, HT29) and ovarian cancer cells (PA-1, OVCAR-3) were seeded (1000 to 4000 in 80 μl per well depending on the cell growth rate) into 96 well plates 24 hours before compound overlay. Compounds were prepared as 10 mM stock solutions in 100% DMSO which were diluted with DMEM (Dulbecco's Modified Eagle's Medium) cell growth Medium (Invitrogen, Burlington, ON, Canada) containing 10% FBS (Fetal Bovine Serum) to concentrations ranging from 50 nM to 250 μM. Aliquots (20 μl) from each concentration were overlaid to 80 μl of the pre-seeded cells in the 96 well plates to make final concentrations of 10 nM to 50 μM. The cells were cultured for 5 days before the Sulforhodamine B assay (SRB) was performed to determine the compound's cell growth inhibition activity.
Sulforhodamine B (purchased from Sigma, Oakville, ON, Canada) is a water-soluble dye that binds to the basic amino acids of the cellular proteins. Thus, colorimetric measurement of the bound dye provides an estimate of the total protein mass that is related to the cell number. the cells are fixed in situ by gently aspirating off the culture media and adding 50 μl ice cold 10% Trichloroacetic Acid (TCA) per well and incubate at 4° C. for 30-60 min, The plates are washed with water five times and allowed to air dry for 5 min. Addition of 50 μl 0.4% (w/v) SRB solution in 1% (v/v) acetic acid to each well and incubatation for 30 min at RT completes the staining reaction. Following staining, plates are washed four times with 1% acetic acid to remove unbound dye and then allowed to air dry for 5 min. The stain is solubilized with 100 μl of 10 mM Tris pH 10.5 per well. Absorbance is read at 570 nm.
The percentage (%) of relative growth inhibition was calculated by comparing to DMSO treated only cells (100%). […] The GI50 was calculated using GraphPad PRISM software (GraphPad Software, Inc., San Diego, Calif., USA).
The subject of assay [4] is PA-1 ovarian cancer cells. Description: Cell growth inhibition, Sulforhodamine B assay, PA-1. The settings on record: 120 h, 5 days culture, SRB assay, read-out: Cell Line GI50 Range PA-1. The format is cell-based.
The test system of assay [5] is OVCAR-3 ovarian cancer cells. Description: Cell growth inhibition, Sulforhodamine B assay, OVCAR-3. The format is cell-based. The settings on record: Homo sapiens, 120 h, 5 days culture, SRB assay, read-out: Cell Line GI50 Range OVCAR-3.

For `O=C(NC(c1ccccc1)C1CCC1)c1ccc2[nH]nc(-c3ccc(N4CCC(O)CC4)cc3)c2c1` (stereo not drawn) [Example A100, N-(cyclobutyl(phenyl)methyl)-3-(4-(4-hydroxypiperidin-1-yl)phenyl)-1H-indazole-5-carboxamide], the IC50 at human PLK4, on human TTK and at Aurora B was ≤ 5 µM throughout. Further, the GI50 (in assay [1]; with HT29 colon cancer cells; in [2]; in [3]; in [4]) was ≤ 5 µM throughout.

As to `CCc1cccc(CC)c1NC(=O)Nc1ccc2[nH]nc(-c3ccc(N4CCOCC4)cc3)c2c1` [Example A86, 1-(2,6-diethylphenyl)-3-(3-(4-morpholinophenyl)-1H-indazol-5-yl)urea], the IC50 on human PLK4, at human TTK and at Aurora B was ≤ 5 µM each time. The GI50 (in assay [1]; with HT29 colon cancer cells; in assay [2]; in [3]; in [4]) was ≤ 5 µM in each case.

Consider `COCCN1CCC(Oc2ccc(-c3n[nH]c4ccc(NC(=O)[C@H](OC)c5ccccc5)cc34)cc2)CC1` [Example A107, (R)-2-methoxy-N-(3-(4-((1-(2-methoxyethyl)piperidin-4-yl)oxy)phenyl)-1H-indazol-5-yl)-2-phenylacetamide], for which the IC50 at human PLK4, on human TTK and at Aurora B was ≤ 5 µM throughout. Besides, the GI50 in assay [1] is ≤ 5 µM; in the assay on HT29 colon cancer cells it was ≤ 5 µM; in [2], 5 to 20 µM; in assay [3], ≤ 5 µM; in [4], ≤ 5 µM.

On to `CN1CCC(C(NC(=O)c2ccc3[nH]nc(-c4ccc(N5CCOCC5)cc4)c3c2)c2ccccc2)CC1` (stereo not drawn) [Example A85, N-((1-methylpiperidin-4-yl)(phenyl)methyl)-3-(4-morpholinophenyl)-1H-indazole-5-carboxamide], for which the IC50 on human PLK4, at human TTK and at Aurora B was ≤ 5 µM throughout. Moreover, the GI50 (in [1]; with HT29 colon cancer cells; in [2]; in assay [3]; in assay [4]) was ≤ 5 µM in each case.

Consider `COc1cc(-c2n[nH]c3ccc(C(=O)NC(c4ccccc4)C4CC4)cc23)ccc1OC1CCN(C2COC2)CC1` (stereo not drawn) [Example A194, N-(cyclopropyl(phenyl)methyl)-3-(3-methoxy-4-((1-(oxetan-3-yl)piperidin-4-yl)oxy)phenyl)-1H-indazole-5-carboxamide], for which the IC50 at human PLK4, at human TTK and on Aurora B was ≤ 5 µM throughout. Further, the GI50 in assay [1], in [5], in assay [2], in assay [3] and in assay [4] was ≤ 5 µM throughout.

Regarding `O=C(Nc1ccc2[nH]nc(-c3ccc(OC4CCN(CCF)CC4)cc3)c2c1)C(c1ccsc1)N1CCCC1` (stereo not drawn) [Example A102, N-(3-(4-((1-(2-fluoroethyl)piperidin-4-yl)oxy)phenyl)-1H-indazol-5-yl)-2-(pyrrolidin-1-yl)-2-(thiophen-3-yl)acetamide], the IC50 at human PLK4, at human TTK and at Aurora B was ≤ 5 µM in each case. For the same compound, the GI50 in [1] is ≤ 5 µM; in the assay on HT29 colon cancer cells, ≤ 5 µM; in assay [5], 5 to 20 µM; in [3], ≤ 5 µM; in assay [4], ≤ 5 µM.

For `COC1CCN(c2ccc(-c3n[nH]c4ccc(NC(=O)C(c5ccsc5)N5CCCC5)cc34)cc2)CC1` (stereo not drawn) [Example A116, N-(3-(4-(4-methoxypiperidin-1-yl)phenyl)-1H-indazol-5-yl)-2-(pyrrolidin-1-yl)-2-(thiophen-3-yl)acetamide], the IC50 at human PLK4, on human TTK and on Aurora B was ≤ 5 µM each time. The GI50 (in assay [1]; in the assay on HT29 colon cancer cells; in assay [2]; in assay [3]; in assay [4]) was ≤ 5 µM throughout.

Consider `CN1CCOc2ccc(-c3n[nH]c4ccc(NC(=O)C(c5ccsc5)N5CCCC5)cc34)cc2C1` (stereo not drawn) [Example A90, N-(3-(4-methyl-2,3,4,5-tetrahydrobenzo[f][1,4]oxazepin-7-yl)-1H-indazol-5-yl)-2-(pyrrolidin-1-yl)-2-(thiophen-3-yl)acetamide], for which the IC50 on human PLK4, on human TTK and on Aurora B was ≤ 5 µM each time. Also, the GI50 (in [1]; with HT29 colon cancer cells; in assay [2]; in [3]; in assay [4]) was ≤ 5 µM in each case.

Turning to `O=C(Nc1ccc2[nH]nc(-c3ccc(N4CCC(O)CC4)cc3)c2c1)C(c1ccccc1)C1CC1` (stereo not drawn) [Example A103, 2-cyclopropyl-N-(3-(4-(4-hydroxypiperidin-1-yl)phenyl)-1H-indazol-5-yl)-2-phenylacetamide], the half-maximal inhibitory concentration (IC50) at human PLK4, at human TTK and on Aurora B was ≤ 5 µM each time. The GI50 (in [1]; with HT29 colon cancer cells; in [2]; in [3]; in assay [4]) was ≤ 5 µM each time.

`CN1CCC(Oc2ccc(-c3n[nH]c4ccc(C(=O)NC(c5ccsc5)C5CCC5)cc34)cc2)CC1` (stereo not drawn) [Example A121]: the IC50 at human PLK4, on human TTK and at Aurora B was ≤ 5 µM throughout. Further, the GI50 (in assay [1]; in the assay with HT29 colon cancer cells; in [5]; in [3]; in assay [4]) was ≤ 5 µM throughout.

In the case of `CC[C@@H](NC(=O)c1ccc2[nH]nc(-c3ccc(OC4CCN(C5COC5)CC4)cc3)c2c1)c1ccccc1Cl` [Example A192, (R)—N-(1-(2-chlorophenyl)propyl)-3-(4-((1-(oxetan-3-yl)piperidin-4-yl)oxy)phenyl)-1H-indazole-5-carboxamide], the IC50 on human PLK4, at human TTK and on Aurora B was ≤ 5 µM each time. Also, the GI50 in [1], in assay [5], in assay [3] and in assay [4] was ≤ 5 µM each time.
